Values of other authors in patent US5391753A, “Heteroaryl substituted phenylethenyl compounds having retinoid-like biological activity” (Allergan, Inc., priority 1993, dated 1995).

Test system: TPA induced ODC activity (ornithine decarboxylase)
Conditions: qualitative statement on retinoic acid, background

CC1=C(/C=C/C(C)=C/C=C/C(C)=C/C(=O)O)C(C)(C)CCC1 [Retinoic acid]
inhibition of induction of ODC activity by TPA: inhibits this induction of ODC activity by TPA
